No end group written: not given here.
What follows are sequences tested against T1, angiotensin converting enzyme (Oryctolagus cuniculus, UniProt P12822) (assay: Determination of angiotensin converting enzyme inhibitory activity (method of Cushmann et al., hippuryl-L-histidine-L-leucine substrate)). Conditions: rabbit lung enzyme, 37° C., 30 minutes, pH 8.3; peptides isolated from Bacillus stearothermophilus hydrolysate; read-out: IC50 (concentration of the sample showing 50% inhibition) (converted).
T1 construct: The supernatant was dialyzed against the same buffer to remove low-molecular weight substances resulting in an angiotensin converting enzyme solution; tissue Sigma Co; host or cells: rabbit lung (acetone-dried preparation)
T1 sequence (P12822 34-1310): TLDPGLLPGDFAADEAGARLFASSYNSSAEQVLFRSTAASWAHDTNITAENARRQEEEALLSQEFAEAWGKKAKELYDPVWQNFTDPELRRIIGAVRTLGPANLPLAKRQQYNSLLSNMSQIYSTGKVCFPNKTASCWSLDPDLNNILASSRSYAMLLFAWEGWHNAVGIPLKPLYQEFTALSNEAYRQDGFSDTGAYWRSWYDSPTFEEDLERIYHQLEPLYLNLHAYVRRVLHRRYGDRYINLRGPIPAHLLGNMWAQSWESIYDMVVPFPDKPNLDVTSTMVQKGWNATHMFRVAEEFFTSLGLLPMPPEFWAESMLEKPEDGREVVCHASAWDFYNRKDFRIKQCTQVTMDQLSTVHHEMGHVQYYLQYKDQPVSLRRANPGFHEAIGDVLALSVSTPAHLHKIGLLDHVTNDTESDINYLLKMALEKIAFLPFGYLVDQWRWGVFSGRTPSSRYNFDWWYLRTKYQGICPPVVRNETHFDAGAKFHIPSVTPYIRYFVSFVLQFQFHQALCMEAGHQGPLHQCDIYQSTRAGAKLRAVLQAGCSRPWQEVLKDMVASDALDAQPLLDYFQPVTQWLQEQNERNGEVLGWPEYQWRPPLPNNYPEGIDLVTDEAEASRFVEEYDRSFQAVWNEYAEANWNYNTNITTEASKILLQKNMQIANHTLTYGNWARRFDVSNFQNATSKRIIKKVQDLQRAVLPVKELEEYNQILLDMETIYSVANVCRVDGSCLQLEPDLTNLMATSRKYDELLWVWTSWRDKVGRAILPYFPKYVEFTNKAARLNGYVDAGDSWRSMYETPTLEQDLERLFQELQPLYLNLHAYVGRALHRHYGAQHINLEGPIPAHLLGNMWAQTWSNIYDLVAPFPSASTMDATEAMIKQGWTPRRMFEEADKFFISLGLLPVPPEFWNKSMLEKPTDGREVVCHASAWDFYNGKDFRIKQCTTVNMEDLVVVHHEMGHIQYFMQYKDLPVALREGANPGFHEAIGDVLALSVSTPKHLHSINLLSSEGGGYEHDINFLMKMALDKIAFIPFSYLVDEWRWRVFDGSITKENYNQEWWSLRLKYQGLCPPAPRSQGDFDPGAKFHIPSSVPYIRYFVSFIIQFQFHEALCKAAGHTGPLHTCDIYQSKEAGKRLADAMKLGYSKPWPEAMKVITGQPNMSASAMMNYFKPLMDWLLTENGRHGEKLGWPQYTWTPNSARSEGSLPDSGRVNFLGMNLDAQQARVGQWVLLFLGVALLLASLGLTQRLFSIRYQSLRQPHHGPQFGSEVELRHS
Assay type: biochemical
Experimental: Angiotensin converting enzyme inhibitory activity during isolation and purification was determined using the method of Cushmann et al., Biochem. Pharacol., Vol. 20, pp. 1637-1648 (1971).
A commercially available acetone-dried preparation of rabbit lungs (product of Sigma Co.) was dissolved in a 50 mM potassium phosphate buffer solution (pH=8.3) at 4° C. and the solution was centrifuged at 37,000×g for 30 minutes. The supernatant was dialyzed against the same buffer to remove low-molecular weight substances resulting in an angiotensin converting enzyme solution.
Hippuryl-L-histidine-L-leucine (product of Peptide Kenkyusho) was added to a 0.1M potassium phosphate buffer solution (pH=8.3) containing 0.3M NaCl to prepare a 2.5 mM enzyme substrate solution. The above-prepared angiotensin converting enzyme, water and a test sample were added to the substrate solution in a final volume of 0.25 ml and the system was allowed to react at 37° C. for 30 minutes. Then, 0.25 ml of 1N HCl was added thereto to stop the reaction and 1.5 ml of ethyl acetate was added to extract released hippuric acid. A 1 ml aliquot of the ethyl acetate extract was evaporated to dryness. To the residue was added 1 ml of distilled water and the absorbance at 228 nm was measured to determine the amount of hippuric acid.
Percent inhibition was calculated from the above-measured absorbance (A) and an absorbance of a blank (B) according to the following equation: [formula] The concentration of the sample showing 50% inhibition was taken as IC50.

First: AYIASKGL [(c), Ala-Tyr-Ile-Ala-Ser-Lys-Gly-Leu]
Second: GKEIIVKAER [(a), Gly-Lys-Glu-Ile-Ile-Val-Lys-Ala-Glu-Arg]
The IC50 of the first is 1.9-fold lower: 35 µM for the first, 65.7 µM for the second.

For “GKMVKVVSWY [(b), Gly-Lys-Met-Val-Lys-Val-Val-Ser-Trp-Tyr]”, the IC50 was 6.69 µM.

— patent US5243027A, “Method of preparing angiotensin converting enzyme inhibitors” (Unitika, Ltd., priority 1990, dated 1993)
